Source: patent US12071434B2, “Heterocyclic compound” (Takeda Pharmaceutical Company Limited, priority 2018, dated 2024)

Key:
[1] = target: T1, human orexin type 2 receptor (Homo sapiens, UniProt O43614); assay: Measurement of orexin type 2 receptor agonist activity (calcium fluorescence, Fluo-4 AM, FDSS) in CHO cells forcibly expressing human OX2 receptor; type: cell-based; settings: test compound 3 μM, DMSO = 0%, orexin A (human) 10 nM = 100%
T1 construct: expressed in transfected cells
T1 sequence (O43614 1-444): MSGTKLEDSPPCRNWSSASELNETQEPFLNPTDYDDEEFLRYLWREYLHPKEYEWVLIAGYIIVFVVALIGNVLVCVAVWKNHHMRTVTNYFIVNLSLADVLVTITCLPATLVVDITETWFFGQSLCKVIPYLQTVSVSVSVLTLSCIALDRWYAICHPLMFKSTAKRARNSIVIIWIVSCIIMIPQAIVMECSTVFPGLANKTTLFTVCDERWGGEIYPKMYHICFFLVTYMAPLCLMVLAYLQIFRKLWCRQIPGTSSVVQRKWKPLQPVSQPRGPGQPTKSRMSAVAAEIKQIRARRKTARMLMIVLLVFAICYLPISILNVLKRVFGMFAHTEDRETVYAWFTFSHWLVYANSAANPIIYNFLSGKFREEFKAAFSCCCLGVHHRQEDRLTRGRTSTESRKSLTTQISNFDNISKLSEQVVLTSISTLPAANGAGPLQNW
How it was run: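 CHO-dhfr cells stably expressing human OX2 receptor, loaded with Fluo-4 AM plus probenecid for 30 min at 37 °C, then 30 min at room temperature. Calcium fluorescence read for about 2 min 40 s after compound addition. Activity (%) scaled between DMSO (0%) and 10 nM human orexin A (100%).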

mice (C57BL/6J mice) = assay: Evaluation of wake-promoting effects by EEG and EMG in mice; type: in vivo; settings: 30 mg/kg, p.o., at zeitgeber time 5; time spent in wakefulness for 2 h after administration; male mice
Procedure: The wake-promoting effects were evaluated by measuring the electroencephalogram (EEG) and electromyogram (EMG) in […] mice (C57BL/6Jmice, CLEA Japan Inc., Tokyo, Japan). Under pentobarbital sodium anesthesia (50 mg/kg, intraperitoneal, Somnopentyl®, Kyoritsu Seiyaku, Tokyo, Japan), […] male […] mice were surgically implanted with EEG electrode and EMG electrode. Bilateral EEG leads (Biotex, Kyoto, Japan) were stereotaxically positioned at the parietal area and secured to the cranium with stainless-steel screws in contact with the dura. Bilateral EMG leads (Biotex) were implanted into the back cervical muscles. After at least a 1-week recovery period in home cages, the […] mice were habituated to the recording chamber located in an electrically shielded soundproof room. After habituated, the cortical EEG and EMG signals were recorded using VitalRecorder® (Kissei Comtec Co., Ltd., Nagano, Japan). The signals were automatically scored in 4 sec epochs by a sleep scoring system (SleepSign®, Kissei Comtec Co., Ltd.). Test compound (30 mg/kg, Table 3X-1) dissolved in a mixed solution containing 10% DMSO, 10% Cremophor EL, 20% PEG400 and 60% H2O, or vehicle (i.e., a mixed solution containing 10% DMSO, 10% Cremophor EL, 20% PEG400 and 60% H2O) was administered orally (p.o.) to the […] mice at zeitgeber time 5 in a volume of 10 mL/kg. The EEG and EMG recordings were performed for 2 h after the compound administration. The time spent in wakefulness for 2 h after administration (% of vehicle treatment) was calculated by using SleepSign.

SMILES: CC(C)n1cnc2c(c1=O)[C@@H](Cc1cccc(-c3ccccc3)c1F)[C@@H](NS(=O)(=O)C1CC1)CC2 [Example 176, N-[(5R,6S)-5-[(2-fluoro[1,1′-biphenyl]-3-yl)methyl]-4-oxo-3-(propan-2-yl)-3,4,5,6,7,8-hexahydroquinazolin-6-yl]cyclopropanesulfonamide]
- 0X2R agonist activity (3 μM, %) [1]: 93%
- Wakefulness time (% of vehicle treatment) (Mean, n = 3) (mice (C57BL/6J mice)): 204.27 % of vehicle treatment

SMILES: CC(C)n1cnc2c(c1=O)[C@@H](Cc1cccc(-c3cc(F)cc(F)c3)c1F)[C@@H](NS(=O)(=O)C1CC1)CC2 [Example 195, N-{(5R,6S)-4-oxo-3-(propan-2-yl)-5-[(2,3′,5′-trifluoro[1,1′-biphenyl]-3-yl)methyl]-3,4,5,6,7,8-hexahydroquinazolin-6-yl}cyclopropanesulfonamide]
- 0X2R agonist activity (3 μM, %) [1]: 94%
- Wakefulness time (% of vehicle treatment) (Mean, n = 3) (mice (C57BL/6J mice)): 183.08 % of vehicle treatment

SMILES: CC(C)n1cnc2c(c1=O)[C@@H](Cc1cccc(-c3cccc(F)c3)c1F)[C@@H](NS(=O)(=O)C1CC1)CC2 [Example 172, N-[(5R,6S)-5-[(2,3′-difluoro[1,1′-biphenyl]-3-yl)methyl]-4-oxo-3-(propan-2-yl)-3,4,5,6,7,8-hexahydroquinazolin-6-yl]cyclopropanesulfonamide]
- 0X2R agonist activity (3 μM, %) [1]: 95%
- Wakefulness time (% of vehicle treatment) (Mean, n = 3) (mice (C57BL/6J mice)): 201.32 % of vehicle treatment

SMILES: CC(C)n1cnc2c(c1=O)[C@@H](Cc1ccc(F)c(-c3ccccc3)c1)[C@@H](NS(C)(=O)=O)CC2 (relative stereo) [Example 150, rel-N-[(5R,6S)-5-[(6-fluoro[1,1′-biphenyl]-3-yl)methyl]-4-oxo-3-(propan-2-yl)-3,4,5,6,7,8-hexahydroquinazolin-6-yl]methanesulfonamide]
- 0X2R agonist activity (3 μM, %) [1]: 98%

SMILES: CC(C)n1cnc2c(c1=O)C(Cc1cccc(-c3cccc(F)c3)c1)C(NS(C)(=O)=O)CC2 [Example 89, rel-N-[(5R,6S)-5-[(3′-fluoro[1,1′-biphenyl]-3-yl)methyl]-4-oxo-3-(propan-2-yl)-3,4,5,6,7,8-hexahydroisoquinazolin-6-yl]methanesulfonamide]
- 0X2R agonist activity (3 μM, %) [1]: 101%

SMILES: CCc1ccc2n(c1=O)[C@@H](Cc1cccc(C3CC3)c1)[C@@H](NS(C)(=O)=O)CC2 (racemic) [Example 136, rac-N-{(3S,4S)-4-[(3-cyclopropylphenyl)methyl]-7-ethyl-6-oxo-1,3,4,6-tetrahydro-2H-quinolizin-3-yl}methanesulfonamide]
- 0X2R agonist activity (3 μM, %) [1]: 89%

SMILES: Cc1ccc2n(c1=O)[C@@H](Cc1csc(-c3ccccc3)n1)[C@@H](NS(C)(=O)=O)CC2 (racemic) [Example 58, rac-N-{(3S,4S)-7-methyl-6-oxo-4-[(2-phenyl-1,3-thiazol-4-yl)methyl]-1,3,4,6-tetrahydro-2H-quinolizin-3-yl}methanesulfonamide]
- 0X2R agonist activity (3 μM, %) [1]: 92%

SMILES: CCc1ccc(C[C@H]2[C@@H](NS(C)(=O)=O)CCc3ccc(C)c(=O)n32)cc1 (racemic) [Example 216, rac-N-{(3S,4S)-4-[(4-ethylphenyl)methyl]-7-methyl-6-oxo-1,3,4,6-tetrahydro-2H-quinolizin-3-yl}methanesulfonamide]
- 0X2R agonist activity (3 μM, %) [1]: 76%

SMILES: Cc1cccc(-c2cccc(C[C@@H]3c4c(ncn(C(C)C)c4=O)CC[C@@H]3NS(C)(=O)=O)c2)c1 (racemic) [Example 106, rac-N-[(5R,6S)-5-[(3′-methyl[1,1′-biphenyl]-3-yl)methyl]-4-oxo-3-(propan-2-yl)-3,4,5,6,7,8-hexahydroquinazolin-6-yl]methanesulfonamide]
- 0X2R agonist activity (3 μM, %) [1]: 103%

SMILES: CS(=O)(=O)N[C@H]1CCc2ccc(Cl)c(=O)n2[C@H]1Cc1cccc(-c2ccccc2)c1 (racemic) [Example 15, rac-N-{(3S,4S)-4-[([1,1′-biphenyl]-3-yl)methyl]-7-chloro-6-oxo-1,3,4,6-tetrahydro-2H-quinolizin-3-yl}methanesulfonamide]
- 0X2R agonist activity (3 μM, %) [1]: 106%

SMILES: CCn1ccc2c(c1=O)[C@@H](Cc1cccc(-c3cccn(C)c3=O)c1)[C@@H](NS(C)(=O)=O)CC2 (racemic) [Example 129, rac-N-[(7S,8R)-2-ethyl-8-{[3-(1-methyl-2-oxo-1,2-dihydropyridin-3-yl)phenyl]methyl}-1-oxo-1,2,5,6,7,8-hexahydroisoquinolin-7-yl]methanesulfonamide]
- 0X2R agonist activity (3 μM, %) [1]: 98%

SMILES: CC(C)n1cnc2c(c1=O)[C@@H](Cc1cccc(-c3ccccc3)c1F)[C@@H](NS(=O)(=O)C1(F)CC1)CC2 [Example 180, 1-fluoro-N-[(5R,6S)-5-[(2-fluoro[1,1′-biphenyl]-3-yl)methyl]-4-oxo-3-(propan-2-yl)-3,4,5,6,7,8-hexahydroquinazolin-6-yl]cyclopropane-1-sulfonamide]
- 0X2R agonist activity (3 μM, %) [1]: 94%
- Wakefulness time (% of vehicle treatment) (Mean, n = 3) (mice (C57BL/6J mice)): 197.28 % of vehicle treatment

SMILES: Cc1ccc2n(c1=O)C(Cc1ccc(-c3ccccc3)cc1)C(NS(C)(=O)=O)CC2 (racemic) [Example 214, rac-N-{(3S,4S)-4-[([1,1′-biphenyl]-4-yl)methyl]-7-methyl-6-oxo-1,3,4,6-tetrahydro-2H-quinolizin-yl}methanesulfonamide]
- 0X2R agonist activity (3 μM, %) [1]: 52%

SMILES: CC(C)n1cnc2c(c1=O)[C@@H](Cc1cccc(-c3ccccc3F)c1F)[C@@H](NS(C)(=O)=O)CC2 (relative stereo) [Example 149, rel-N-[(5R,6S)-5-[(2,2′-difluoro[1,1′-biphenyl]-3-yl)methyl]-4-oxo-3-(propan-2-yl)-3,4,5,6,7,8-hexahydroquinazolin-6-yl]methanesulfonamide]
- 0X2R agonist activity (3 μM, %) [1]: 105%

SMILES: CC(C)n1ccc2c(c1=O)[C@@H](Cc1cccc(-c3cccc(F)c3)c1)[C@@H](NS(C)(=O)=O)CC2 (racemic) [Example 74, rac-N-[(7S,8R)-8-[(3′-fluoro[1,1′-biphenyl]-3-yl)methyl]-1-oxo-2-(propan-2-yl)-1,2,5,6,7,8-hexahydroisoquinolin-7-yl]methanesulfonamide]
- 0X2R agonist activity (3 μM, %) [1]: 91%

SMILES: Cc1nc2c(c(=O)n1C(C)C)[C@@H](Cc1cccc(-c3ccccc3)c1)[C@@H](NS(C)(=O)=O)CC2 (racemic) [Example 70, rac-N-{(5R,6S)-5-[([1,1′-biphenyl]-3-yl)methyl]-2-methyl-4-oxo-3-(propan-2-yl)-3,4,5,6,7,8-hexahydroquinazolin-6-yl}methanesulfonamide]
- 0X2R agonist activity (3 μM, %) [1]: 97%
